US20260297031A1, “HYDROXYLAMINE-BASED BCR-ABL1 INHIBITORS FOR TREATMENT OF CANCER” (University of Georgia Research Foundation, Inc., priority 2023, published 2026)

Columns and labels:
[1] = Plasma protein binding by equilibrium dialysis, rat plasma; type: in vitro ADME; details: plasma, 5 μM, read-out: fu, plasma %
Experimental: Plasma Protein Binding by Equilibrium Dialysis (Independently Performed by Pharmaron Inc., Ninqbo, CN)
Initially, 1 mM solutions of test compounds and the control compound (Ketoconzaole) were prepared in DMSO. After this, dialysis membranes were soaked in ultrapure water for 60 min to separate strips, followed by 20% aq. ethanol for 20 min, and finally in a dialysis buffer for 20 min. […] After this, 597 μL of blank plasma solution followed by 3 μL of the working solutions of either test compounds or control compound were added to a new plastic plate or separate plastic tube and the solutions were vortexed at 1,000 rpm for 2 min. Immediately after this, 50 μL of spiked plasma solution suspension was transferred to a 96-well plate to act as T=0 control. The remaining samples were treated in the same manner, whereby all remaining spiked plasma solutions were added to the incubator for the duration of the study.
Cells were then loaded with 120 μL of the plasma samples and dialyzed against an equal volume of dialysis buffer (PBS). […] At the end of incubation, the lid was removed and 50 μL of post-dialysis samples were removed from both buffer and plasma solution chambers into a separate 96-well plate for analysis. The plasma solutions (50 μL) were then added to the buffer samples along with an equal volume of PBS (50 μL) to the collected plasma solution samples. The plate was shaken at 1,000 rpm for 2 min and 400 μL of acetonitrile containing an appropriate internal standard was added to precipitate protein and release compound. The samples were then vortexed at 1,000 rpm for an additional 10 min followed by centrifugation at 3,220 g for 30 min. […] The samples were analyzed by LC-MS/MS and 100 μL of distilled water was added to each sample prior to analysis.
Concentrations of test compounds and control compound in buffer and plasma solution chambers was determined and percentages of test compounds and control compound bound using the following equations (mean of n=2 replicates): […]

BCR-ABL1 T315I = target: T1, BCR-ABL1 T315I (Homo sapiens, UniProt P00519, T315I); experiment: KinaseProfiler radiometric kinase assay, BCR-ABL1 T315I; type: biochemical; details: [ATP] = 10 μM; mean of n = 2
T1 construct: BCR (fusion partner, as the printed name BCR-ABL1 says)

[2] = Metabolic stability in rat liver microsomes; type: in vitro ADME; details: rat liver microsomes
Experimental: Metabolic Stability in Liver Microsomes (Independently Performed by Pharmaron Inc., Ninqbo, CN)
This experiment was carried out under two separate set of conditions: i) with Cofactors (NADPH), which consisted of adding 25 μL of 10 mM NADPH to the incubations, giving a final NADPH concentration of 1 mM, and ii) without Cofactors (NADPH), which consisted of adding 25 μL of 100 mM phosphate buffer to the incubations. Under both sets of conditions, the final concentration of microsomes were 0.5 mg/mL. […] Samples were then centrifuged at 3,220 g for 40 min and aliquots of 100 μL of the supernatant were mixed with 100 μL of ultra-pure H2O and analyzed by LC-MS/MS.
Peak areas were determined from extracted ion chromatograms. The slope value, k, was determined by linear regression of the natural logarithm of the remaining percentage of the parent drug vs incubation time curve.

BCR-ABL1 Y253F = target: T2, BCR-ABL1 Y253F (Homo sapiens, UniProt P00519, Y253F); experiment: KinaseProfiler radiometric kinase assay, BCR-ABL1 Y253F; type: biochemical; details: [ATP] = 10 μM; mean of n = 2
T2 construct: BCR (fusion partner, as the printed name BCR-ABL1 says)

MDCKII-MDR1 permeability = details: dog, MDCK-MDR1, pH 7.4
Experimental: MDCKII-MDR1 Permeability (Independently Performed By: Pharmaron Inc., Ninqbo, CN)
To each well of the Transwell insert and reservoir were added 50 μL and 25 mL of cell culture medium, respectively.
To determine the rate of drug transport in the apical to basolateral direction, 125 μL of the working solution of either test compounds or control compounds was added to the Transwell insert (apical compartment) and a 50 μL sample was immediately transferred from the apical compartment to 200 μL of acetonitrile containing internal standard (100 nM alprazolam, 200 nM caffeine, and 100 nM tolbutamide) in a new 96-well plate as the initial donor sample (A-B). The sample was then vortexed at 1,000 rpm for 10 min. The receiver plate (basolateral compartment) wells were then filled with 235 μL transport buffer. To determine the rate of drug transport in the basolateral to apical direction, 285 μL of the working solution of either test compounds or control compounds was added to the receiver plate (basolateral compartment) wells and a 50 μL of sample was immediately transferred from the basolateral compartment to 200 μL of acetonitrile containing internal standard in a new 96-well plate as the initial donor sample (B-A). The sample was vortexed for 10 min at 1,000 rpm. The Transwell insert (apical compartment) was then filled with 75 μL of transport buffer and the apical to basolateral direction and the basolateral to apical direction were done at the same time. […] After incubation, 50 μL samples from donor sides (apical compartment for Ap→BI flux, and basolateral compartment BI→Ap) and receiver sides (basolateral compartment for Ap→BI flux, and apical compartment for BI→Ap) were transferred to wells of a new 96-well plate, followed by the addition of 200 μL acetonitrile containing internal standard. […] An aliquot of 100 μL of the supernatant was mixed with an appropriate volume of ultra-pure water before LC-MS/MS analysis.
To monitor for monolayer integrity, Lucifer yellow leakage was determined after the 2 h transport period. This began by preparing a stock solution of Lucifer yellow in DMSO and diluted with HBSS (10 mM HEPES, pH 7.4.) to reach a final concentration of 100 μM. To each Transwell insert (apical compartment) was then added 100 μL of the Lucifer yellow solution, followed by filling the wells in the receiver plate (basolateral compartment) with 300 μL of HBSS (10 mM HEPES, pH 7.4).
The efflux ratio was determined using the following equation: […]

BCR-ABL1 wt = target: T3, BCR-ABL1 wt (Homo sapiens, UniProt P00519); experiment: KinaseProfiler radiometric kinase assay, BCR-ABL1 wt; type: biochemical; details: [ATP] = 10 μM; mean of n = 2
T3 construct: called BCR-ABL1 in the text

[3] = Metabolic stability in rat hepatocytes; type: in vitro ADME; details: rat hepatocytes
Experimental: All calculations were carried out using Microsoft Excel. Peak areas were determined from extracted ion chromatograms.

hERG channel = hERG channel (Homo sapiens, UniProt Q12809); experiment: hERG safety evaluation by manual patch-clamp system
Chain of hERG channel (Q12809 whole entry): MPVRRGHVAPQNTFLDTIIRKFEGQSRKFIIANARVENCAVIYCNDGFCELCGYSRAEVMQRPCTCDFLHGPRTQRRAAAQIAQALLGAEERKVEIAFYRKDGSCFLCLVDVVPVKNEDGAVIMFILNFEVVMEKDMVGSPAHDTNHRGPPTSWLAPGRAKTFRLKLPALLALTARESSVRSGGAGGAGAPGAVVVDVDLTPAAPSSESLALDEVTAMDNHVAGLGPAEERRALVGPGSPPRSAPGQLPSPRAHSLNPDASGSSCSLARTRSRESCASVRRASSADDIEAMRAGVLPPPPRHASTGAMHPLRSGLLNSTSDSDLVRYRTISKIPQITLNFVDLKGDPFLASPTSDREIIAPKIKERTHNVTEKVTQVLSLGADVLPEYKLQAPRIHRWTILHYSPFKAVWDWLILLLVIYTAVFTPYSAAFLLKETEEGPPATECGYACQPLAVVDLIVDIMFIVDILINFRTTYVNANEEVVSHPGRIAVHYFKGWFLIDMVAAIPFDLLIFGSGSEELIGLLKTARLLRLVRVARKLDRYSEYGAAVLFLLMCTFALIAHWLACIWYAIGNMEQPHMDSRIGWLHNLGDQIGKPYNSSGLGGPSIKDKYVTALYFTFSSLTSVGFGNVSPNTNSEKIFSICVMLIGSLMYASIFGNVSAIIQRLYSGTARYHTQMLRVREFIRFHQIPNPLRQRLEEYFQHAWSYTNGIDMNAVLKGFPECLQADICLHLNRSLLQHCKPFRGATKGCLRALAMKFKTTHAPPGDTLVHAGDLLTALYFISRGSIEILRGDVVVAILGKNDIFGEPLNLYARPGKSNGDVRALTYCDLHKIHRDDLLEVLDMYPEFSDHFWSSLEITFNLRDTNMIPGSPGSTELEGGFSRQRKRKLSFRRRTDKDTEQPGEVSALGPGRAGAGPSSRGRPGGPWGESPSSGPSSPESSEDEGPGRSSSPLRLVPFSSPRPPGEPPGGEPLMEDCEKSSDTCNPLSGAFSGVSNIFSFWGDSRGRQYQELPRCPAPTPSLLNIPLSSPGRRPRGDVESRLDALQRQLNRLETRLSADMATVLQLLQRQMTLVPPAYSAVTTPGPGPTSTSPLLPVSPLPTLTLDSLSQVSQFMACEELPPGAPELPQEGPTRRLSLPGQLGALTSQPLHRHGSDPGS

Row | SMILES | fraction unbound at 6 h, 5 µM [1] | IC50 (BCR-ABL1 T315I) [nM] | half-life at 1 µM [2] [min] | microsomal CLint at 1 µM ([2]; read-out: LMCIint (rate of metabolism)) [µL/min/mg] | IC50 (BCR-ABL1 Y253F) [nM] | Papp A→B at 2 h, 1 µM (MDCKII-MDR1 permeability) [×10⁻⁶ cm/s] | Papp B→A at 2 h, 1 µM (MDCKII-MDR1 permeability) [×10⁻⁶ cm/s] | efflux ratio at 1 µM (MDCKII-MDR1 permeability) | IC50 (BCR-ABL1 wt) [nM] | half-life [3] [min] | hepatocyte CLint ([3]; read-out: HEPCIint (rate of metabolism)) [µL/min/1e6 cells] | hERG liability, in words (hERG channel)
1 | COc1cc(Nc2c(C#N)cnc3cc(OCCON4CCN(C)CC4)c(OC)cc23)c(F)cc1Cl [Compound 15, 4-((4-chloro-2-fluoro-5-methoxyphenyl)amino)-6-methoxy-7-(2-((4-methylpiperazin-1-yl)oxy)ethoxy)quinoline-3-carbonitrile] | 0.049 | 166 | 4.9 | 286 | 1 | 0.7 | 19.3 | 26.5 | 1 | 12.3 | 113 | 
2 | COc1cc2c(Nc3cccc(OC)c3Cl)c(C#N)cnc2cc1OCCON1CCN(C)CC1 [Compound 17, 4-((2-Chloro-3-methoxyphenyl)amino)-6-methoxy-7-(2-((4-methylpiperazin-1-yl)oxy)ethoxy)quinoline-3-carbonitrile] |  |  |  |  |  |  |  |  |  |  |  | minimal hERG inhibition
